# Laboratory results reported in article PMC11459959, “Discovery of new acetamide derivatives of 5-indole-1,3,4-oxadiazol-2-thiol as inhibitors of HIV-1 Tat-mediated viral transcription” (Antimicrobial Agents and Chemotherapy, 2024).
# Read-outs that look alike come from different tables or passages of the source.
# Assays:
# Format in all cases: cell-based
# [1] = test system: HIV-1NL4-3; test: HIV-1 replication in A3.01 cells (p24 […]); details: fivefold serial dilutions, 3 days
# Description: (§1) The p24 level from the cell supernatant was subsequently determined using a p24 […] kit (PerkinElmer). In parallel, the cell viability was determined without viral infection because of the viral cytopathic effect. […] In parallel, cell viability was determined. The data (A and B) are presented as the mean ± SD (n = 3). (C) PBMCs (4 × 10^5) infected with HIV-AD8 at an MOI of 0.1 were treated with 1.5 µM of the compounds or ARVs for 3 days. The levels of p24 and cell viability were subsequently determined. (D) J1.1 cells were cultured with the compounds ([…]) under 50 ng/mL phorbol myristate acetate (PMA) treatment for 2 days. The level of p24 was subsequently determined. (E) J-Lat 6.3 cells were treated with the compounds (1.5 µM) under 1 µg/mL of PMA for 2 days. The GFP-positive cell population was analyzed using flow cytometry. The data are represented as a value relative to the DMSO-treated vehicle (D) and a percent of the GFP^+ cell population (E) as mean ± SD (n = 3).
# (§2) The inhibitory effects of the compounds on viral replication were determined with some minor modifications, as previously described ([12], [62]). […] PBMCs (4 × 10^5) pre-activated with PHA-M for 3 days were washed with fresh media to remove excess PHA-M and subsequently infected with HIV-1NL4-3 or HIV-1AD8 or PIs-resistant HIV-1 strains as A3.01 infection. After infection, the infectious media were replaced with fresh media supplemented with international 10 units (IU)/mL of IL-2 and the indicated compounds. At 72 h after infection, the inhibitory effect of the compounds on viral replication was determined by measuring the p24 amount, an HIV capsid protein, using an HIV-1 p24 […] kit (PerkinElmer, Waltham, MA, USA). Cell viability was determined as described above. The inhibitory effects on provirus reversing in J1.1 and J-Lat 6.3 cells were determined as previously described ([12], [41], [63]) with some minor modifications. Briefly, 5 × 10^4 persistently HIV-1-infected J1.1 or J-Lat 6.3 cells were cultured in either the presence or absence of the compounds at a final concentration of 1.5 µM and treated with PMA (50 ng/mL for J1.1 cells, 1 µg/mL for J-Lat 6.3 cells). Two days after treatment, the levels of viral production were determined using p24 […] for J1.1 cells and flow cytometry analysis for GFP-expressing J-Lat 6.3 cells.
# [2] = test system: HIV-1 transcripts; test: RNA-seq of HIV-1 transcripts in infected TZM-bl cells; details: HIV-1NL4-3 MOI 1, 1.5 µM, 2 days
# Description: At 48 h after infection, the total RNA was extracted using the Maxwell RSC simplyRNA Cells Kit (Promega) according to the manufacturer’s instructions. RNA integrity was evaluated as RNA integrity number >6 using the Agilent 2100 Bio-analyzer (Agilent Technologies, Santa Clara, CA, USA). The cDNA libraries were constructed using TruSeq Stranded mRNA Sample Preparation Kit (Illumina, San Diego, CA, USA) according to the manufacturer’s instructions. Subsequently, these cDNA libraries were sequenced on the Illumina sequencing platform (NovaSeq6000; Illumina) and 150 bp paired-end reads were generated. Trimmomatic (v.0.32) was used to eliminate low-quality reads and adapter sequences from the sequencing data ([64]). Subsequently, the filtered reads were aligned to the HIV-1 genome (accession: AF324493.2) using STAR (v.2.3.0) ([65]). RT-qPCR analyses were performed as previously described ([66]) with some minor modifications. […] After infection, the infected cells were treated with 1.5 µM of the compounds. Forty-eight hours after treatment, the viral mRNA was isolated, converted to cDNA, and quantified through RT-qPCR on a 7500 Real-Time PCR System (Applied Biosystems) using the Power SYBR Green PCR Master Mix (Applied Biosystems). The comparative cycle threshold (Ct) method was used to analyze relative changes (Δ) in gene expression. The ΔCt values were determined using a 7500 Real-Time PCR System Software (Applied Biosystems) normalizing with gapdh, and the gene expression was calculated using the ΔΔCt-method. The primers used in this assay are the following: gag forward, 5′-[…]-3′, gag reverse, 5′-[…]-3′; gapdh forward, 5′-[…]-3′, gapdh reverse, 5′-[…]-3′.
# [3] = test system: HIV-1NL4-3 IRES-eGFP-nef+; test: eGFP-encoding HIV-1 infection of TZM-bl cells; details: 9, 10, 13 1.5 μM, 20, 21, 22 4 μM, seliciclib 10 µM, triptolide 5 nM, DTG 2 nM, EFV 2 nM, 2 days
# Description: Fig 4 (A) Comparison of the chemical structures between prominent derivatives (9, 10, and 13) and non-functional derivatives (20, 21 and 22). (B) bl-DTR cells were treated with serial dilutions of each compound upon Dox for 24 h. The activities of F-Luc and R-Luc were determined using the Dual-Glo -Luciferase assay system. (C) TZM-bl cells were infected with the HIV-1NL4-3 strain at an MOI of 1 upon treatment of compounds. At 48 h after infection, the viral infectivity and cell viability were determined as described above (Fig. 1). (D) TZM-bl cells were infected with HIV-1NL4-3 IRES-eGFP virus along with the compound treatment. Two days later, GFP-expressing cells were observed by fluorescence microscopy (100× magnification). […] At 48 h after infection, the β-gal activity indicating viral infectivity was determined using the β-gal Enzyme Assay kit. F-Luc activity and cell viability were determined as described above (Fig. 4C). (C and E) The dose-response curves show the relative activity compared with that of the DMSO vehicle (mean ± SD; n = 3).
# [4] = test system: HIV-1NL4-3; test: HIV-1 replication in PBMCs (p24 […]); details: Table S1, WT virus, 10-fold serial dilution
# Description: as §1, §2
# [5] = test system: PI-resistant HIV-1 strain 11803; test: microbe, parasite or virus in culture
# Excerpt: (§3) The Tzm-bl-derived dual Tat reporter; TZM-bl/Tat/Rluc (bl-DTR) cells were established from TZM-bl cells using two Dox-inducible lentiviral expression cassettes cloned with Flag-tagged Tat86 and the R-Luc gene, as described in our previous study ([11]). TZM-bl, A3.01, J1.1, and J-Lat 6.3 cells as well as the HIV-1 molecular clone pNL4-3, pNL(AD8), ARV-resistant HIV-1 strains, and HIV-1NL43-IRES-eGFP (pBR43IeG-nef^+, gifted by Dr. Frank Kirchhoff) ([52]) were provided by the National Institute of Health HIV Reagent Program (NIH, Bethesda, MD, USA). HeLa (CCL-2) and 293T (CRL-3216) cell lines were purchased from the American Type Culture Collection (ATCC, Manassas, VA, USA). The bl-DTR, TZM-bl, HeLa, and 293T cells were cultured in Dulbecco’s modified Eagle’s medium supplemented with 1% penicillin–streptomycin and 10% (vol/vol) heat-inactivated fetal bovine serum (all from Gibco-BRL, Gaithersburg, MD, USA), and 1 µg/mL of puromycin and 200 µg/mL of zeocin were additionally supplemented for the bl-DTR cells. PBMCs were purchased from AllCells (Alameda, CA, USA) and cultured as previously described ([12]). The information on ARV-resistant HIV-1 strains was described in previous reports as follows: NNRTI-resistant 12241 and 12243 ([53]); NRTI-resistant 7396, 7406, and 7407 ([54]); INSTI-resistant 11847 and 11849 ([55], [56]); and PI-resistant 11800 and 11803 ([57]). Each molecular HIV-1 clone was transfected to 293T cells, as previously described ([58]), to obtain infectious HIV-1 particles. Virus-containing cell culture supernatants were collected 3 days after transfection, and filtered through a 0.45-µm membrane filter (Millipore Sigma, Burlington, MA, USA) to remove cell debris. The viral titration was performed as described previously ([59]) with some minor modifications. In brief, 1 × 10^4 TZM-bl cells seeded in 96-well plates were infected with 200 µL of virus-containing medium diluted serially twofold. The incubation was for 2 days and the experiment was performed in triplicate; the infection time minimized the virus spread ([59]). The titration of the infectious viral particles was performed with a ß-Gal staining assay using the ßeta-Galactosidase Staining Kit (Mirus Bio, Madison, WI, USA) following the manufacturer’s protocols. In brief, the infected cells were washed with phosphate-buffered saline (PBS) and fixed using a Cell Fixative Working solution. The cells were washed with PBS and stained using the Cell Staining Working Solution containing X-gal. The infected blue-colored cells were counted under a microscope (100× magnification). The infectious virus titer was determined as a mean value of blue-colored cells count × dilution factor and used for determining the multiplicity of infection (MOI) in each infection experiment.
# (§4) The inhibitory effects of the compounds on viral replication were determined with some minor modifications, as previously described ([12], [62]). […] PBMCs (4 × 10^5) pre-activated with PHA-M for 3 days were washed with fresh media to remove excess PHA-M and subsequently infected with HIV-1NL4-3 or HIV-1AD8 or PIs-resistant HIV-1 strains as A3.01 infection. After infection, the infectious media were replaced with fresh media supplemented with international 10 units (IU)/mL of IL-2 and the indicated compounds. At 72 h after infection, the inhibitory effect of the compounds on viral replication was determined by measuring the p24 amount, an HIV capsid protein, using an HIV-1 p24 […] kit (PerkinElmer, Waltham, MA, USA). Cell viability was determined as described above. The inhibitory effects on provirus reversing in J1.1 and J-Lat 6.3 cells were determined as previously described ([12], [41], [63]) with some minor modifications.
# [6] = test system: PI-resistant HIV-1 strain 11800; test: microbe, parasite or virus in culture
# Excerpt: as §3, §4
# [7] = Human immunodeficiency virus 1, PBMC
smiles,measurement,setting,value
"Cc1[nH]c2ccc(-c3nnc(S(=O)(=O)C(C)C(=O)N4CCCCC4)o3)cc2c1C (stereo not drawn) [Compound 20, 2-((5-(2,3-Dimethyl-1H-indol-5-yl)-1,3,4-oxadiazol-2-yl)sulfonyl)-1-(piperidin-1-yl)propan-1-one]",inhibition of viral replication (in words),[1],did not
same,read counts of transcripts mapped to the HIV-1 genome,[2],not observed
same,inhibition of viral-expressed eGFP signal,[3],did not
"CC(C)CN(C[C@@H](O)[C@H](Cc1ccccc1)NC(=O)O[C@H]1CO[C@H]2OCC[C@H]21)S(=O)(=O)c1ccc(N)cc1 [DRV, darunavir]",EC50,[4]; [7],< 1 nM
same,EC50,[5]; [7],30 ± 10 nM
same,EC50,[6]; [7],150 ± 20 nM
"CC(C)(C)NC(=O)[C@@H]1C[C@@H]2CCCC[C@@H]2CN1C[C@@H](O)[C@H](Cc1ccccc1)NC(=O)[C@H](CC(N)=O)NC(=O)c1ccc2ccccc2n1 [SQV, sequinavir]",EC50,[4]; read-out: EC50,8.24 ± 0.15 nM
same,EC50,"[5]; PI-resistant 11803, PBMCs, 10-fold serial dilution, read-out: EC50",1240 ± 130 nM
same,EC50,"[6]; PI-resistant 11800, PBMCs, 10-fold serial dilution, read-out: EC50",10 nM
